According to PubChem BioAssay (NCI):
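Dose response: 5 concentrations. Exposure: 48 h. Format: 96-well plates. Endpoint: linear interpolation; highest concentration if not reached. Abbreviation: GI50, concentration required for 50% inhibition of growth. The concentration for full growth arrest is given as TGI.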

Assays:
Experiment in all cases: NCI tumour cell line growth inhibition, 48 h
SW-620 colon = test system: SW-620 colon
SK-MEL-28 melanoma = test system: SK-MEL-28 melanoma
CAKI-1 renal = test system: CAKI-1 renal
DMS 273 small cell lung = test system: DMS 273 small cell lung
DLD-1 colon = test system: DLD-1 colon
SNB-78 CNS = test system: SNB-78 CNS
M19-MEL melanoma = test system: M19-MEL melanoma
DMS 114 small cell lung = test system: DMS 114 small cell lung
LXFL 529 NSCLC = test system: LXFL 529 NSCLC
KM20L2 colon = test system: KM20L2 colon
HOP-18 NSCLC = test system: HOP-18 NSCLC

SMILES	TGI (SW-620 colon) [µM]	TGI (SK-MEL-28 melanoma) [µM]	TGI (CAKI-1 renal) [µM]	other results
CCN(CC)c1nc(N(C)C)c2ccc(OC)cc2n1	50	32.4	> 100	
Cc1cc(C)nc(NS(=O)(=O)c2ccc(NNC(=O)c3cccc4c(NNc5ccc(S(=O)(=O)Nc6nc(C)cc(C)n6)cc5)c5ccccc5nc34)cc2)n1	48.3	48.7	41.8	
c1ccc(SC(Sc2ccccc2)c2ccc3c(c2)OCO3)cc1	> 100	> 100	> 100	
O=Cc1[nH]c(=O)[nH]c(=O)c1CCl	> 100	> 100	> 100	
CC1C2(C)OC(=N)C(C#N)(C(c3ccco3)O2)C1(C#N)C#N (configuration not stated)	40.4	46.2	27.4	
CCCN1CN(c2ccccc2)C2(CCN(CCCC(=O)c3ccc(F)cc3)CC2)C1=O	20.4	34.3	41.1	
Cc1ccc(S(=O)C[C@@]2(C(F)F)NC(=O)NC2=O)cc1 (some centres not stated)	> 100	> 100	> 100	
COc1cc(CNC(=O)[C@H](Cc2ccc(O)cn2)NC(C)=O)cc(OC)c1	> 100	> 100	> 100	
c1ccc2c(c1)CCN1CCc3c([nH]c4ccccc34)C21 (configuration not stated)	> 100	48.8	> 100	
O=C(N1CCC(CN=c2cc3n(-c4ccc(Cl)cc4)c4ccccc4nc-3cc2Nc2ccc(Cl)cc2)CC1)N1CC1	2.05	0.981	3.88	GI50 (SW-620 colon): 0.709 µM; GI50 (SK-MEL-28 melanoma): 0.519 µM; GI50 (CAKI-1 renal): 1.38 µM
C[C@@H]1OC(=O)C[C@H]2CC(=O)N(CCC3CN(S(=O)(=O)C(F)(F)F)c4ccc(Cc5ccc6c(c5)C(CCN5C[C@H]7[C@@H](CC(=O)O[C@H]7C)CC5=O)CN6S(=O)(=O)C(F)(F)F)cc43)C[C@@H]21 (some centres not stated)	> 100	> 100	> 100	
NC(CCCNc1cccc(O)c1)C(=O)O (configuration not stated)	> 100	> 100	> 100	TGI (DMS 273 small cell lung): > 100 µM; TGI (DLD-1 colon): > 100 µM; TGI (SNB-78 CNS): > 100 µM; TGI (M19-MEL melanoma): > 100 µM; TGI (DMS 114 small cell lung): > 100 µM; TGI (LXFL 529 NSCLC): > 100 µM; TGI (KM20L2 colon): > 100 µM; TGI (HOP-18 NSCLC): > 100 µM
CC(C)c1ccc2c(c1)C=C1OC(=O)[C@]3(C)CCC[C@@]2(C)C13 (some centres not stated)	> 100	> 100	> 100	
NC(N)=NS(=O)(=O)c1ccc(Nc2c3ccccc3nc3c(C(=O)NC(CO)(CO)CO)cccc23)cc1	> 100	> 100	> 100	
O=c1c2ccccc2c2c1c1c3ccccc3c(=O)c1c1c3ccccc3c(=O)c21	> 100	> 100	> 100	
O/N=C1/CCCCCC1NO (configuration not stated)	> 100	> 100	> 100	
O=C(N/N=C/C=C/c1ccc([N+](=O)[O-])o1)c1ccc(Br)s1	71.6	52.3	66.2	
CC(=O)Nc1ccc(S(=O)(=O)[N-]C2C(=O)c3ccccc3C(=O)C2[n+]2ccccc2)cc1 (configuration not stated)	32.9	30.1	> 100	
O=C1OC2c3ccccc3C(=O)C2(c2ccccc2)N1c1ccccc1 (configuration not stated)	> 200	> 200	> 200	
COc1cc(S(=O)(=O)Nc2ccc(-c3csc(N4C(=O)C(C)SC4c4ccccc4O)n3)cc2)ccc1Cl (configuration not stated)	> 100	55.6	> 100	
COc1ccc(C(=O)/C=C/c2ccc(OCC(=O)O)cc2)cc1	> 100	> 100	> 100	
CC(=O)[O-].CC(=O)[O-].O=C(N/N=C/c1cc(Cl)cc(Cl)c1[OH2+])c1ccncc1.[Zn+2]	> 100	> 100		TGI (KM20L2 colon): > 100 µM
Cn1c(=O)c2c(ncn2CCSS(=O)(=O)O)n(C)c1=O	> 100	> 100	> 100	
O=C(O)CSc1nnc(CCCCCCCCc2nnc(SCC(=O)O)o2)o1	> 100	> 100	> 100	
CCCC(=O)/C=C/S/C=C/C(=O)CCC	6.05	18.7	7.4	
O=C1c2ccccc2C(=O)C2C3c4ccccc4C(c4ccccc43)C12 (configuration not stated)	> 100	> 100		TGI (DMS 273 small cell lung): 39.4 µM; TGI (DLD-1 colon): > 100 µM; TGI (SNB-78 CNS): 51.3 µM; TGI (M19-MEL melanoma): 40 µM; TGI (DMS 114 small cell lung): 42.7 µM; TGI (LXFL 529 NSCLC): 37.2 µM; TGI (KM20L2 colon): > 100 µM
OCCCCn1cc(Cn2ncc3c(SCc4ccccc4)ncnc32)nn1	90.9	> 100	> 100	
O=C(Nc1ccccc1)Nn1c(-c2cccs2)nc2ccc(I)cc2c1=O	> 100	53.6	53.3	
COc1cc(-c2c3c([nH]c(=O)c2C#N)-c2cc([N+](=O)[O-])ccc2CCC3)cc(OC)c1OC	> 100	> 100	87.9	
CC(C)CCNC(=O)c1ccc(CNC(=O)/C=C/c2csc(-c3ccccc3)n2)cc1	> 100	> 100	> 100	
